Experimental data taken from patent US20260048046A1, “METHOD FOR IMPROVING GROWTH PERFORMANCE IN FEEDLOT CATTLE” (Elanco US Inc., priority 2022, published 2026).
Entries after “also recorded” stand apart in the source; their conditions may differ.

Tested on: beef cattle
Assay: 91-d study: carcass characteristics
Type: in vivo
Settings: for Adjusted fat thickness / Calculated yield grade / HGW / IM area / KPH / Dressing percentage / Lean maturity / Overall maturity / Skeletal maturity / Marbling score: 91-d treatment, LS mean; for Dressing percentage: unshrunk BW basis; for Lean maturity / Overall maturity / Skeletal maturity: 100 A, 200 B maturity; for Marbling score: 500 Small, 600 Modest
Source text: A randomized complete block design was used to evaluate the effect of lubabegron (LUB) on performance over a 91-d period using 336 beef cattle (BW=453±34.5 kg) housed in cattle pen enclosures (CPE). Four LUB treatments were included in the study based on dose: 0.0 (control or CON), 1.38, 5.5, and 22.0 (mg·kg^−1 of DM). Because there was a limited number of CPE (n=8), three sequential cycles (blocks) were required to generate 6 replicates of each dose×sex combination. As such, 112 cattle (56 steers and 56 heifers) were housed concurrently within each cycle across the eight CPE (14 cattle/CPE), with each dose×sex combination being represented by a single CPE/cycle. To assure different frame sizes of cattle were represented, cattle in cycles one and three were large-frame Continental crossbreds, whereas cattle in cycle 2 were medium-frame British crossbreds.
On day 91, cattle were loaded onto double-decked aluminum semi-trailers and transported ˜1,000 km to a commercial abattoir where they were slaughtered following an ˜5 to 9 h lairage. Carcass identification was maintained throughout the slaughter process by recording ear tag sequence at stunning and then cross-matching to sequentially numbered carcass tags. Hot carcass weights and KPH were measured following industry standard processing, and yield grade (YG) and quality grade data were collected from left carcass sides by trained university personnel after 22 h in a spray-chill system.
Data were analyzed using version 9.2 of SAS (SAS Institute, Cary, NC), and the individual CPE were considered the experimental unit. Continuous variables were analyzed using PROC MIXED, with treatment (LUB dose), sex, and the dose×sex interaction as fixed effects, and cycle as the random effect included in the model. If the dose×sex interaction was not significant (P>0.05), the main effect of dose pooled across sexes was evaluated. When the main effect of dose was significant (P≤0.05) or tended to be significant (0.05≤P≤0.10), planned contrasts comparing each LUB dose to CON were performed in a pairwise fashion. If the dose×sex was significant (P≤0.05) planned contrasts comparing each LUB dose to CON within sex were performed in a pairwise fashion. Treatment means were estimated using the LSMEANS statement.
Discrete variables were analyzed with a generalized linear mixed model using a binomial distribution and logit link function in PROC GLIMMIX. The classification of fixed and random effects and the handling of interactions and pairwise comparisons were performed in a similar manner as the continuous variables. Statistical analyses for YG were performed on both continuous and discrete (YG 1=1.00 to 1.99, YG 2=2.00 to 2.99, and so on) forms of data, and quality grades were further sorted into the five categories routinely used for determining premium or discount adjustments when cattle are marketed on a grid-based system (U.S. Prime, upper 2/3 Choice, low Choice, Select, and Standard). […] Fisher's exact test was performed using PROC FREQ to evaluate the frequency distribution of the CON cattle compared with LUB. Statistical significance for the main effects of dose was determined by P≤0.05 and tendencies were declared when 0.05≤P≤0.10.

With `CC(C)(Cc1ccc(Oc2ncccc2C#N)cc1)NC[C@H](O)COc1ccccc1-c1cccs1` [LUB, 2-{4-[2-({(2S)-2-Hydroxy-3-[2-(2-thienyl)phenoxy]propyl}amino)-2-methylpropyl]phenoxy}nicotinonitrile] as the molecule, how does the “Effect of LUB treatment on skeletal, lean, or overall maturity” value (91 d, P≥0.262) read?
Its value is “no effect”.

What about the “Probability of cattle producing a YG3 carcass” value (91 d, YG as discrete variable, CON vs LUB-fed) of the same molecule?
The value was “greater (P<0.019) for CON-than LUB-fed cattle”.

And the “Probability of cattle producing YG1, YG2, or YG4 carcasses” value (91 d, across treatments, P≥0.233)?
The value was “similar”.

What about the “Effect of LUB treatment on calculated YG” value (91 d, all LUB doses vs CON, P=0.155) of the same molecule?
Its value is “no effect”.

What about the “Effect of LUB treatment on adjusted fat thickness” value (91 d, all LUB doses vs CON, P=0.579) of the same molecule?
Its value is “not affected; also recorded: no change”.

What about the Dark cutter incidence (91 d, only a single carcass over the entire study) of the same molecule?
The Dark cutter incidence was “not influenced by treatment”.

And the “Increased HCW” value (LUB 1.38 mg·kg^−1 DM (first of the respective treatments), 91 d)?
The value was 15 kg animal-1.

And the Adjusted fat thickness (LUB 1.38 mg·kg^−1 DM)?
The Adjusted fat thickness was 1.15 cm.

And the Calculated yield grade (LUB 1.38 mg·kg^−1 DM)?
The Calculated yield grade was 2.37.

And the HGW (LUB 1.38 mg·kg^−1 DM)?
Its HGW is 364 kg.

And the IM area (LUB 1.38 mg·kg^−1 DM)?
Its IM area is 94.8 cm^2.

What about the KPH (LUB 1.38 mg·kg^−1 DM) of the same molecule?
Its KPH is 1.99%.

And the Dressing percentage (LUB 1.38 mg·kg^−1 DM)?
Its Dressing percentage is 62.4%.

What about the Lean maturity (LUB 1.38 mg·kg^−1 DM) of the same molecule?
Its Lean maturity is 163.

What about the Overall maturity (LUB 1.38 mg·kg^−1 DM) of the same molecule?
Its Overall maturity is 168.

What about the Skeletal maturity (LUB 1.38 mg·kg^−1 DM) of the same molecule?
Its Skeletal maturity is 170.

What about the Marbling score (LUB 1.38 mg·kg^−1 DM) of the same molecule?
Its Marbling score is 573.

What about the “Increased HCW” value (LUB 5.5 mg·kg^−1 DM (second of the respective treatments), 91 d) of the same molecule?
The value was 16 kg animal-1.

And the Adjusted fat thickness (LUB 5.5 mg·kg^−1 DM)?
Its Adjusted fat thickness is 1.24 cm.

And the Calculated yield grade (LUB 5.5 mg·kg^−1 DM)?
Its Calculated yield grade is 2.41.

What about the HGW (LUB 5.5 mg·kg^−1 DM) of the same molecule?
The HGW was 365 kg.

And the KPH (LUB 5.5 mg·kg^−1 DM)?
Its KPH is 1.96%.

What about the Dressing percentage (LUB 5.5 mg·kg^−1 DM) of the same molecule?
The Dressing percentage was 62.7%.

And the Lean maturity (LUB 5.5 mg·kg^−1 DM)?
The Lean maturity was 167.

What about the Overall maturity (LUB 5.5 mg·kg^−1 DM) of the same molecule?
The Overall maturity was 169.

What about the Skeletal maturity (LUB 5.5 mg·kg^−1 DM) of the same molecule?
Its Skeletal maturity is 170.

What about the Marbling score (LUB 5.5 mg·kg^−1 DM) of the same molecule?
Its Marbling score is 560.

And the “Increased HCW” value (LUB 22.0 mg·kg^−1 DM (third of the respective treatments), 91 d)?
Its value is 16 kg animal-1.

What about the Adjusted fat thickness (LUB 22.0 mg·kg^−1 DM) of the same molecule?
The Adjusted fat thickness was 1.19 cm.

What about the Calculated yield grade (LUB 22.0 mg·kg^−1 DM) of the same molecule?
The Calculated yield grade was 2.25.

And the HGW (LUB 22.0 mg·kg^−1 DM)?
Its HGW is 365 kg.

And the IM area (LUB 22.0 mg·kg^−1 DM)?
The IM area was 96.8 cm^2.

What about the KPH (LUB 22.0 mg·kg^−1 DM) of the same molecule?
Its KPH is 1.61%.

What about the Dressing percentage (LUB 22.0 mg·kg^−1 DM) of the same molecule?
The Dressing percentage was 62.8%.

What about the Lean maturity (LUB 22.0 mg·kg^−1 DM) of the same molecule?
The Lean maturity was 163.

What about the Overall maturity (LUB 22.0 mg·kg^−1 DM) of the same molecule?
The Overall maturity was 168.

And the Skeletal maturity (LUB 22.0 mg·kg^−1 DM)?
Its Skeletal maturity is 172.

What about the Marbling score (LUB 22.0 mg·kg^−1 DM) of the same molecule?
Its Marbling score is 562.

What about the “Carcass weights heavier than CON” value (cattle fed LUB (1.38, 5.5, 22.0 mg·kg^−1 DM), 91 d) of the same molecule?
The value was “about 15 kg”.

And the “Probability of grading high Choice vs CON” value (cattle fed LUB, 91 d, P=0.004)?
The value was “lower”.

And the “Probability of grading low Choice vs CON” value (cattle fed LUB, 91 d, P=0.021)?
Its value is “greater”.
